Here are results for 18 molecules from patent publication US20180353462A1, “[…] AGENTS […] FLAVONOID DERIVATIVES TARGETING KINASES, SIRTUINS AND ONCOGENIC AGENTS FOR THE TREATMENT OF CANCERS” (priority 2015, published 2018).

Where two headings read alike, the source gives them in different places.

In one experiment the target is T1, FLT3(D835Y) (Homo sapiens, UniProt P36888, D835Y).
T1 construct: made in house
T1 sequence (P36888 27-993 D835Y): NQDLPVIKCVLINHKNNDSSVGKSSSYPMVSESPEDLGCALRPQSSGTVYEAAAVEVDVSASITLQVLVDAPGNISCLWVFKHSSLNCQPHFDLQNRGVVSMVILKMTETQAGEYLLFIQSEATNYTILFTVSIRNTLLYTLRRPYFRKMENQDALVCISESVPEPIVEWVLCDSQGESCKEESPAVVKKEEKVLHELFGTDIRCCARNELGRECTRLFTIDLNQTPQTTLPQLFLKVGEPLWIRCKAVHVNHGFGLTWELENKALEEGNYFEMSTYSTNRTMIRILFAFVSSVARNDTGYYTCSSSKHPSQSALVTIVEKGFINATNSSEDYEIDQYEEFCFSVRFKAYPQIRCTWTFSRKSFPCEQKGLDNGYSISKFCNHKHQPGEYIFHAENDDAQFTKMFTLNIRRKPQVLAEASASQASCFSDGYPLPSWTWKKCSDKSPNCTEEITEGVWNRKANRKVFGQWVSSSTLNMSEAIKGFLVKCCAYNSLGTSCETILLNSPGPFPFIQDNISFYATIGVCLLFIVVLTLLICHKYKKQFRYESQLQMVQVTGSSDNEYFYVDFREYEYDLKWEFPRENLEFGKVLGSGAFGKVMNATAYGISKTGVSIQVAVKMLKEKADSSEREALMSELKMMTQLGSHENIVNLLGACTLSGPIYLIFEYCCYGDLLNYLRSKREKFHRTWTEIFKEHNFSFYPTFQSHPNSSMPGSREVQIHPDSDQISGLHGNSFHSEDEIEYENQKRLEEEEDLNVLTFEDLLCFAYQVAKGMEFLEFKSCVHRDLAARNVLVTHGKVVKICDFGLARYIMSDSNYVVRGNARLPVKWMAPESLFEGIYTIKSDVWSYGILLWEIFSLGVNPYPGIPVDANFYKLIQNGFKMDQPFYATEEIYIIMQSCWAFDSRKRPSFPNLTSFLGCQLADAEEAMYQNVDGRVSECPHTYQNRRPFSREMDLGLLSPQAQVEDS
The experiment is classed as binding. The protocol:
Cannabis flavonoids and their analogs were subjected to kinase inhibition assay. The compounds were first screened at a single concentration of 10 μM in the primary assay. […] To determine the kd or IC50 values, competition binding assays were established, authenticated and executed as described previously. […] See also, Karaman et al., “A Quantitative Analysis Of Kinase Inhibitor Selectivity”, Nat. Biotechnol. […] For most assays, kinases were fused to T7 phage strains (Fabian, supra) and for the other assays, kinases were produced in HEK-293 cells after which they were tagged with DNA for quantitative PCR detection. In general, full-length constructs were used for small, single domain kinases, and catalytic domain constructs for large multi-domain kinases. […] The liganded beads were blocked with excess biotin and washed with blocking buffer (SeaBlock (Pierce), 1% BSA, 0.05% Tween 20, 1 mM DTT) to remove unbound ligand and to reduce non-specific phage binding. […] All reactions were performed in polypropylene 384-well plates in a final volume of 0.04 ml. […] The kinase concentration in the eluates was measured by quantitative PCR. An illustration of the kinase interaction process is presented below. Kd/IC50 values were determined using a standard dose response curve using the hill equation. Curves were fitted using a non-linear least square fit with the Levenberg-Marquardt algorithm.

For a further experiment, the system named is MV4-11 (Leukemia). The experiment is described as follows: WST-1 anticancer cell proliferation assay, MV4-11. The experiment is classed as cell-based. As for the experimental part: (§1) Anticancer activity was tested against several standard cancer cell lines including brain, breast, Kaposi sarcoma, leukemia, lung, melanoma, tenosynovial giant cell tumor, ovarian, pancreatic, colon and prostate cancer. Cells were trypsinized and plated into 96 well plates in 50 μl of media and incubated overnight. The next day approximately 18 hours after plating, 50 μl of media containing the required flavonoid-based pharmaceutical composition was added per well. Cells were plated at a density so that 72 hours post drug addition, the cells will be in log phase (500)-2000 cells/well). The compounds and extracts were solubilized in Dimethyl sulfoxide (DMSO). The cells are allowed to proliferate for 72 hours 37° C. in humidified atmosphere of 5% CO2. The experiment is terminated using WST-1 (Roche®) 10 μl per well and absorbance is read at 450 nm %690 nm. The effect of drugs on growth is assessed as percent of cell viability. The IC50 values were determined from the extract dose versus control growth curves using Graphpad Prism® software. All experiments were carried out in duplicate and the mean results determined.

Experiment [1] has as its system THP-1 acute myeloid leukemia cell line. The experiment is described as follows: WST-1 anticancer cell proliferation assay, THP-1. The following applies: Table 4; read-out: Acute Myeloid Leukemia cell lines THP-1 IC50. The experiment is classed as cell-based. As for the experimental part:
as §1
Background: Tetrazolium dyes change colour on reduction, which living cells bring about.

The mark [2] stands for this setting: Table 1 kinase panel, read-out: IC50 (nM) FLT3(D835Y).
The mark [3] stands for this setting: Table 3, 72 hours, WST-1, read-out: IC50 (μM) MV4-11 (Leukemia).
Setting [4] is: Table 4, read-out: Acute Myeloid Leukemia cell lines MV4-11 IC50.
The mark [5] stands for this setting: Table 4, read-out: Acute Myeloid Leukemia Kinases FLT3-D835Y IC50.

As for `COc1cc(-c2cc(=O)c3c(O)c(C/C=C(\C)CCC=C(C)C)c(O)cc3o2)ccc1O` [FBL-03A], the half-maximal inhibitory concentration (IC50) on FLT3(D835Y) (setting [2]) was above 20000 nM.
As for `COc1cc(-c2cc(=O)c3c(O)c(CC=C(C)C)c(O)cc3o2)ccc1O` [FBL-03B], the IC50 in the experiment on MV4-11 (Leukemia) (setting [3]) was determined as 1.43 µM; on FLT3(D835Y) (setting [2]), 12.7 nM.
For the molecule `COc1cc(-c2cc(=O)c3c(O)cc(O)c(C/C=C(\C)CCC=C(C)C)c3o2)ccc1O` [FBL-03C], the IC50 on FLT3(D835Y) (setting [2]) is above 20000 nM.
Still for that read-out and setting: next, `COc1ccc(-c2cc(=O)c3c(O)c(C/C=C(\C)CCC=C(C)C)c(O)cc3o2)cc1OC` [FBL-03D]: above 30000 nM.
As to `COc1cc(-c2cc(=O)c3c(O)cc(O)c(CC=C(C)C)c3o2)ccc1O` [FBL-03G], the results for the IC50 in the experiment with MV4-11 (Leukemia) (setting [3]) and on FLT3(D835Y) (setting [2]) were 3.1 µM and 45 nM, respectively.
Consider `COc1ccc(C2CC(=O)c3c(O)cc(O)cc3O2)cc1O` (stereo not drawn) [FBLGS-74], for which the IC50 in the experiment on MV4-11 (Leukemia) (setting [4]) is above 100 µM; at FLT3(D835Y) (setting [5]), 8580 nM; in experiment [1] it was above 100 µM.
Regarding `O=c1cc(-c2ccccc2)oc2cc(O)cc(O)c12` [FBLGS-75], the IC50 in the experiment on MV4-11 (Leukemia) (setting [4]) was 4.35 µM; at FLT3(D835Y) (setting [5]), 76 nM; in experiment [1], above 100 µM.
As to `Cc1cc2oc(-c3cccc(N)c3)cc(=O)c2c([N+](=O)[O-])c1C` [FBLGS-76], the IC50 is 1.9 µM with MV4-11 (Leukemia) (setting [4]), 680 nM on FLT3(D835Y) (setting [5]) and above 100 µM in experiment [1].
The like results for `O=c1cc(-c2ccc(O)c(O)c2)oc2cc(O)cc(O)c12` [FBLGS-77] were, in that order, 7.21 µM, 577 nM and above 100 µM.
The like results for `COc1cc(O)c2c(=O)c(O)c(-c3ccc(O)c(O)c3)oc2c1` [FBLGS-78] were, in that order, 5.62 µM, 149 nM and above 100 µM.
The like results for `COc1cc(O)c2c(=O)c(O)c(-c3ccc(O)c(O)c3)oc2c1` [FBLGS-79] were, in that order, 3.41 µM, 13 nM and above 100 µM.
`COc1cc(O)c2c(=O)c(O)c(-c3ccc(O)c(OC)c3)oc2c1` [FBLGS-80]: the values for the IC50 (in the experiment with MV4-11 (Leukemia) (setting [4]); at FLT3(D835Y) (setting [5]); in experiment [1]) were 5.86 µM, 27 nM and above 100 µM, respectively.
The like results for `COc1cc(-c2oc3cc(O)ccc3c(=O)c2O)ccc1O` [FBLGS-81] were, in that order, 0.9 µM, 0.9 nM and above 100 µM.
Taken in the same sequence, the figures for `O=C1CC(c2ccc(O)c(O)c2)Oc2cc(O)cc(O)c21` (stereo not drawn) [FBLGS-82] were above 10 µM, 11000 nM and above 100 µM.
The like results for `O=c1c(O)c(-c2ccc(O)c(O)c2)oc2cc(O)ccc12` [FBLGS-83] were, in that order, 1.6 µM, 82 nM and 13 µM.
As to `O=c1c(O)c(-c2ccc(O)c(O)c2)oc2cc(O)cc(O)c12` [FBLGS-84], the IC50 in the experiment on MV4-11 (Leukemia) (setting [4]) is 6.3 µM; on FLT3(D835Y) (setting [5]), 194 nM.
In the case of `COc1cc(-c2cc(=O)c3c(O)c(OC)c(OC)cc3o2)ccc1O` [FBLGS-85], the IC50 with MV4-11 (Leukemia) (setting [4]) is 0.9 µM; on FLT3(D835Y) (setting [5]), 22 nM; in experiment [1] it was above 100 µM.
The like results for `COc1cc(-c2cc(=O)c3c(O)c(OC)c(O)cc3o2)ccc1O` [FBLGS-86] were, in that order, 2.2 µM, 43 nM and above 100 µM.

Usually IC50 stands for the midpoint of a concentration-inhibition curve.
